Measurements published in US8138168B1 (Takeda Pharmaceutical Company Limited, priority 2007, dated 2012).

Target: T1, Recombinant human renin (Homo sapiens, UniProt P00797)
T1 construct: isolate the active form (residues 67-406); made in house; host or cells: FreeStyle 293-F cells (transient expression of pcDNA3.1(+)/hREN)
T1 sequence (P00797 67-406): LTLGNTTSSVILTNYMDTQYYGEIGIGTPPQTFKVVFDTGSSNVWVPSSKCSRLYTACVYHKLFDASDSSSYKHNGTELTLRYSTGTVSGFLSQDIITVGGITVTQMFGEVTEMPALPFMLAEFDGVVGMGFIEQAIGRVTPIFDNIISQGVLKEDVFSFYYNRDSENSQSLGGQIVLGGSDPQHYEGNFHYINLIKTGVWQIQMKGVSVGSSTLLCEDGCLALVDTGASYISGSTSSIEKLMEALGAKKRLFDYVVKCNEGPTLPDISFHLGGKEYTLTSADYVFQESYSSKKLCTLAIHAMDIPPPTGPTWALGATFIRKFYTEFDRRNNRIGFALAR
Assay: In vitro enzymatic activity assay of renin inhibitors (fluorogenic peptide substrate)
Assay type: biochemical
Details: read-out: IC50 of Exemplified Compounds Against Renin
Outline: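 Enzyme: recombinant human renin, 3 nM final, 10 min compound pre-incubation at 37 °C; buffer 50 mM Hepes pH 7.4 with 0.1 mg/mL BSA or extra 2% BSA; 5% DMSO.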

Row | Compound | IC50 [µM]
1 | N[C@@H](CC(=O)N1CCCC(c2nc3ccccc3[nH]2)C1)c1cccc([N+](=O)[O-])c1 (stereo partly drawn) [Compound 40, (3S)-1-(3-(1H-benzo[d]imidazol-2-yl)piperidin-1-yl)-3-amino-3-(3-nitrophenyl)propan-1-one] | > 1
2 | COCCCn1c([C@@H]2CCCN(C(=O)C[C@H](N)Cc3ccc(-c4ccc(S(C)(=O)=O)cc4)cc3)C2)nc2ccccc21 [Compound 165, (R)-3-amino-1((R)-3-(1-(3-methoxypropyl)-1H-benzo[d]imidazol-2-yl)piperidin-1-yl)-4-(4′-(methylsulfonyl)biphenyl-4-yl)butan-1-one] | < 0.1
3 | COCCCn1c([C@@H]2CCCN(C(=O)C[C@H](N)CNS(=O)(=O)c3ccccc3OC)C2)nc2ccccc21 [Compound 324, N-((S)-2-amino-4-((R)-3-(1-(3-methoxypropyl)-1H-benzo[d]imidazol-2-yl)piperidin-1-yl)-4-oxobutyl)-2-methoxybenzenesulfonamide] | > 1
4 | COCCCn1c([C@@H]2CCCN(C(=O)C[C@H](N)CNC(=O)Nc3ccccc3C(C)C)C2)nc2ccccc21 [Compound 301, 1-((S)-2-amino-4-((R)-3-(1-(3-methoxypropyl)-1H-benzo[d]imidazol-2-yl)piperidin-1-yl)-4-oxobutyl)-3-(2-isopropylphenyl)urea] | 0.1 to 1
5 | COCCCn1c([C@@H]2CCCN(C(=O)C[C@H](N)Cc3ccc(-c4ccc(C(=O)N[C@@H](C)CO)cc4)cc3)C2)nc2ccccc21 [Compound 187, 4′-((R)-2-amino-4-((R)-3-(1-(3-methoxypropyl)-1H-benzo[d]imidazol-2-yl)piperidin-1-yl)-4-oxobutyl)-N-((S)-1-hydroxypropan-2-yl)biphenyl-4-carboxamide] | < 0.1
6 | COCCCn1c([C@@H]2CCCN(C(=O)C[C@H](N)CNC(=O)c3ccc4c(c3)OCCO4)C2)nc2ccccc21 [Compound 308, N-((S)-2-amino-4-((R)-3-(1-(3-methoxypropyl)-1H-benzo[d]imidazol-2-yl)piperidin-1-yl)-4-oxobutyl)-2,3-dihydrobenzo[b][1,4]dioxine-6-carboxamide] | 0.1 to 1
7 | COCCCn1c([C@@H]2CCCN(C(=O)C[C@H](N)Cc3ccc(-c4ccc(OC)nc4OC)cc3)C2)nc2ccccc21 [Compound 132, (R)-3-amino-4-(4-(2,6-dimethoxypyridin-3-yl)phenyl)-1-((R)-3-(1-(3-methoxypropyl)-1H-benzo[d]imidazol-2-yl)piperidin-1-yl)butan-1-one] | < 0.1
8 | COCCCn1c([C@@H]2CCCN(C(=O)C[C@H](N)c3cccc(C#N)c3)C2)nc2ccccc21 [Compound 85, 3-((S)-1-amino-3-((R)-3-(1-(3-methoxypropyl)-1H-benzo[d]imidazol-2-yl)piperidin-1-yl)-3-oxopropyl)benzonitrile] | > 1
9 | COCCCn1c([C@@H]2CCCN(C(=O)C[C@H](N)COCc3ccccc3)C2)nc2ccccc21 [Compound 88, (S)-3-amino-4-(benzyloxy)-1-((R)-3-(1-(3-methoxypropyl)-1H-benzo[d]imidazol-2-yl)piperidin-1-yl)butan-1-one] | > 1
10 | COCCCn1c([C@@H]2CCCN(C(=O)C[C@H](N)CNC(=O)c3cccc(N4CCCCC4)n3)C2)nc2ccccc21 [Compound 313, N-((S)-2-amino-4-((R)-3-(1-(3-methoxypropyl)-1H-benzo[d]imidazol-2-yl)piperidin-1-yl)-4-oxobutyl)-6-(piperidin-1-yl)picolinamide] | 0.1 to 1
11 | COCCCn1c([C@@H]2CCCN(C(=O)C[C@H](N)CNC(=O)Nc3cccc(Oc4ccccc4)c3)C2)nc2ccccc21 [Compound 288, 1-((S)-2-amino-4-((R)-3-(1-(3-methoxypropyl)-1H-benzo[d]imidazol-2-yl)piperidin-1-yl)-4-oxobutyl)-3-(3-phenoxyphenyl)urea] | 0.1 to 1
12 | COCCCn1c([C@@H]2CCCN(C(=O)C[C@H](N)Cc3ccc(N4CCOCC4=O)cc3)C2)nc2ccccc21 [Compound 213] | 0.1 to 1
13 | COC(=O)[C@H](Cc1ccccc1)NC(=O)N1CCCC(c2nc3ccccc3[nH]2)C1 (stereo partly drawn) [Compound 12, (2S)-methyl 2-(3-(1H-benzo[d]imidazol-2-yl)piperidine-1-carboxamido)-3-phenylpropanoate] | > 1
14 | COCCCc1nc2ccccc2n1[C@@H]1CCCN(C(=O)C[C@H](N)Cc2ccc3ccccc3c2)C1 [Compound 243, (R)-3-amino-1-((R)-3-(2-(3-methoxypropyl)-1H-benzo[d]imidazol-1-yl)piperidin-1-yl)-4-(naphthalen-2-yl)butan-1-one] | > 1
15 | S=C(Nc1cccc2nsnc12)N1CCCC(c2nc3ccccc3[nH]2)C1 (stereo not shown) [Compound 18, N-(benzo[c][1,2,5]thiadiazol-4-yl)-3-(1H-benzo[d]imidazol-2-yl)piperidine-1-carboxthioamide] | > 1

Other lines, results leading:

Row | IC50 [µM] | Compound
16 | 0.1 to 1 | NC(=O)CCn1c([C@@H]2CCCN(C(=O)C[C@H](N)Cc3ccc(-c4ccncc4)cc3)C2)nc2ccccc21 [Compound 488, 3-(2-((R)-1-((R)-3-amino-4-(4-(pyridin-4-yl)phenyl)butanoyl)piperidin-3-yl)-1H-benzo[d]imidazol-1-yl)propanamide]
17 | > 1 | CCCSc1ncccc1C(=O)N1C[C@@H](N)[C@H](C(=O)N2CCC[C@@H](c3nc4ccccc4n3CCCOC)C2)C1 [Compound 418]
18 | 0.1 to 1 | COCCCn1c([C@@H]2CCCN(C(=O)[C@@H]3CN(S(=O)(=O)c4ccc5ccccc5c4)C[C@H]3N)C2)nc2ccccc21 [Compound 341, ((3R,4S)-4-amino-1-(naphthalen-2-ylsulfonyl)pyrrolidin-3-yl)((R)-3-(1-(3-methoxypropyl)-1H-benzo[d]imidazol-2-yl)piperidin-1-yl)methanone]
19 | > 1 | COCCCn1c([C@@H]2CCCN(C(=O)[C@@H]3CN(C(=O)NC4CCCCC4)C[C@H]3N)C2)nc2ccccc21 [Compound 386, (3S,4R)-3-amino-N-cyclohexyl-4-((R)-3-(1-(3-methoxypropyl)-1H-benzo[d]imidazol-2-yl)piperidine-1-carbonyl)pyrrolidine-1-carboxamide]
20 | < 0.1 | COCCCn1c([C@@H]2CCCN(C(=O)C[C@H](N)Cc3ccc(-c4ccc5c(c4)OCCN5C)cc3)C2)nc2ccccc21 [Compound 439, (R)-3-amino-1-((R)-3-(1-(3-methoxypropyl)-1H-benzo[d]imidazol-2-yl)piperidin-1-yl)-4-(4-(4-methyl-3,4-dihydro-2H-benzo[b][1,4]oxazin-7-yl)phenyl)butan-1-one]
21 | > 1 | COCCCn1c([C@@H]2CCCN(C(=O)[C@@H]3CN(C(=O)N4CCCC4)C[C@H]3N)C2)nc2ccccc21 [Compound 417, ((3R,4S)-4-amino-1-(pyrrolidine-1-carbonyl)pyrrolidin-3-yl)((R)-3-(1-(3-methoxypropyl)-1H-benzo[d]imidazol-2-yl)piperidin-1-yl)methanone]
22 | 0.1 to 1 | CC(=O)NCCn1c([C@@H]2CCCN(C(=O)C[C@H](N)Cc3ccc(-c4ccc5c(c4)OC(F)(F)O5)cc3)C2)nc2ccccc21 [Compound 448, N-(2-(2-((R)-1-((R)-3-amino-4-(4-(2,2-difluorobenzo[d][1,3]dioxol-5-yl)phenyl)butanoyl)piperidin-3-yl)-1H-benzo[d]imidazol-1-yl)ethyl)acetamide]
23 | 0.1 to 1 | COCCCn1c([C@@H]2CCCN(C(=O)[C@@H]3CN(S(=O)(=O)c4ccc(C)cc4C)C[C@H]3N)C2)nc2ccccc21 [Compound 383, ((3R,4S)-4-amino-1-(2,4-dimethylphenylsulfonyl)pyrrolidin-3-yl)((R)-3-(1-(3-methoxypropyl)-1H-benzo[d]imidazol-2-yl)piperidin-1-yl)methanone]
24 | 0.1 to 1 | CC(=O)NCCn1c([C@@H]2CCCN(C(=O)C[C@H](N)Cc3ccc(-c4cnc(N)nc4)cc3)C2)nc2c(Cl)cccc21 [Compound 470, N-(2-(2-((R)-1-((R)-3-amino-4-(4-(2-aminopyrimidin-5-yl)phenyl)butanoyl)piperidin-3-yl)-4-chloro-1H-benzo[d]imidazol-1-yl)ethyl)acetamide]
25 | 0.1 to 1 | COCCCn1c([C@@H]2CCCN(C(=O)[C@@H]3CN(S(=O)(=O)c4ccc(OC)cc4)C[C@H]3N)C2)nc2ccccc21 [Compound 369, ((3R,4S)-4-amino-1-(4-methoxyphenylsulfonyl)pyrrolidin-3-yl)((R)-3-(1-(3-methoxypropyl)-1H-benzo[d]imidazol-2-yl)piperidin-1-yl)methanone]
26 | 0.1 to 1 | COCCCn1c([C@@H]2CCCN(C(=O)[C@@H]3CN(c4ccc([N+](=O)[O-])cc4)C[C@H]3N)C2)nc2ccccc21 [Compound 508, ((3R,4S)-4-amino-1-(4-nitrophenyl)pyrrolidin-3-yl)((R)-3-(1-(3-methoxypropyl)-1H-benzo[d]limidazol-2-yl)piperidin-1-yl)methanone]
27 | < 0.1 | COCCCn1c([C@@H]2CCCN(C(=O)C[C@H](N)Cc3ccc(-c4ccc5c(c4)CC(=O)N5)cc3)C2)nc2c(C)cccc21 [Compound 495, 5-(4-((R)-2-amino-4-((R)-3-(1-(3-methoxypropyl)-4-methyl-1H-benzo[d]imidazol-2-yl)piperidin-l-yl)-4-oxobutyl)phenyl)indolin-2-one]
28 | 0.1 to 1 | COCCCn1c([C@@H]2CCCN(C(=O)[C@@H]3CN(S(=O)(=O)C(C)C)C[C@H]3N)C2)nc2ccccc21 [Compound 371, ((3R,4S)-4-amino-1-(isopropylsulfonyl)pyrrolidin-3-yl)((R)-3-(1-(3-methoxypropyl)-1H-benzo[d]imidazol-2-yl)piperidin-1-yl)methanone]
